Results as given in patent US4129737A, “Process for the preparation of an 8-alkyl-5-oxo-5,8-dihydro-pyrido(2,3-d)pyrimidine-6-carboxylic acid” (priority 1972, dated 1978).
In brackets after ≈: the same amount, converted by molar mass. Like-named read-outs stand apart in the source and are kept apart here.

What was measured:
Assay type in all cases: cell-based
[1] = system: B. pyocyaneus A22; assay: Minimum inhibitory concentration by agar dilution, B. pyocyaneus A22; settings: Pseudomonas aeruginosa, A22, 37° C., 18 hours, read-out: minimum inhibitory concentration (M.I.C.)
Procedure: (§1) (a) Trypticase soya medium (T.S.A.), which is very suitable for culturing the majority of microorganisms; it has the following composition:
(§2) (b) Ordinarily nutrient agar (N.A.), which is less rich in nutrients, corresponds to the following formulation: […]
(§3) Table I gives the minimum inhibitory concentrations (expressed in μg/cm^3) for the various microorganisms tested on each medium.
(§4) The products were tested on three Gram positive microorganisms (1 to 3) […] and on 10 Gram negative microorganisms (4 to 13).
(§5) Table (II) gives the minimum inhibitory concentrations of the compounds of Examples XII to XVI, determined on the agar medium, N.A., and expressed in μg/cm^3.

[2] = system: Sh. sonnei; assay: Minimum inhibitory concentration by agar dilution, Sh. sonnei; settings: Shigella sonnei, 37° C., 18 hours, read-out: minimum inhibitory concentration (M.I.C.)
Procedure: as §1, §2, §3, §4, §5

[3] = system: Bord. bronchiseptica; assay: Minimum inhibitory concentration by agar dilution, Bord. bronchiseptica; settings: Bordetella bronchiseptica, 37° C., 18 hours, read-out: minimum inhibitory concentration (M.I.C.)
Procedure: as §1, §2, §3, §4, §5

[4] = system: B. pyocyaneus TUR; assay: Minimum inhibitory concentration by agar dilution, B. pyocyaneus TUR; settings: Pseudomonas aeruginosa, 37° C., 18 hours
Procedure: as §1, §2, §3, §4

[5] = system: Pr. mirabilis; assay: Minimum inhibitory concentration by agar dilution, Pr. mirabilis; settings: Proteus mirabilis
Procedure: as §1, §2, §3, §4, §5

[6] = system: Klebs. pneumoniae; assay: Minimum inhibitory concentration by agar dilution, Klebs. pneumoniae; settings: Klebsiella pneumoniae, 37° C., 18 hours, read-out: minimum inhibitory concentration (M.I.C.)
Procedure: as §1, §2, §3, §4, §5

[7] = system: Streptococcus; assay: Minimum inhibitory concentration by agar dilution, Streptococcus Group A
Procedure: as §1, §2, §3, §4, §5

[8] = system: Staphylococcus 209 P; assay: Minimum inhibitory concentration by agar dilution, Staphylococcus 209 P; settings: Staphylococcus
Procedure: as §1, §2, §3, §4, §5

[9] = system: Salm. typhi; assay: Minimum inhibitory concentration by agar dilution, Salm. typhi; settings: Salmonella enterica, 18 h
Procedure: as §1, §2, §3, §4, §5

[10] = system: Pr. vulgaris; assay: Minimum inhibitory concentration by agar dilution, Pr. vulgaris; settings: Proteus vulgaris
Procedure: as §1, §2, §3, §4, §5

[11] = system: Pr. morganii; assay: Minimum inhibitory concentration by agar dilution, Pr. morganii; settings: Morganella morganii, 37° C., 18 hours, read-out: minimum inhibitory concentration (M.I.C.)
Procedure: as §1, §2, §3, §4, §5

[12] = system: Gram-negative microorganisms; assay: In vitro anti-microbial activity on agar media, overall; settings: in vitro
Procedure: as §4

[13] = system: B. subtilis; assay: Minimum inhibitory concentration by agar dilution, B. subtilis; settings: Bacillus subtilis, 37° C., 18 hours, read-out: minimum inhibitory concentration (M.I.C.)
Procedure: as §1, §2, §3, §4, §5

[14] = system: Esch. Coli 95; assay: Minimum inhibitory concentration by agar dilution, Esch. Coli 95; settings: Escherichia coli
Procedure: as §1, §2, §3, §4, §5

[15] = N.A. (nutrient agar, pH 6.8), Table I
[16] = T.S.A. (trypticase soya medium, pH 7.3)
[17] = T.S.A. (trypticase soya medium, pH 7.3), read-out: minimum inhibitory concentration (M.I.C.)
[18] = 18 h, pH 7.3, read-out: minimum inhibitory concentration (M.I.C.)
[19] = N.A. (nutrient agar, pH 6.8), 37° C., 18 hours, Table I, read-out: minimum inhibitory concentration (M.I.C.)
[20] = T.S.A. (trypticase soya medium, pH 7.3), 37° C., 18 hours, read-out: minimum inhibitory concentration (M.I.C.)
[21] = pH 6.8, read-out: minimum inhibitory concentration (M.I.C.)
[22] = pH 7.3, read-out: minimum inhibitory concentration (M.I.C.)
[23] = 18 h, pH 6.8, read-out: minimum inhibitory concentration (M.I.C.)

Compound | MIC [1, 15] [µg/mL] | MIC [1, 16] [µg/mL] | MIC [2, 15] [µg/mL] | MIC [2, 16] [µg/mL] | MIC [3, 15] [µg/mL] | MIC [3, 16] [µg/mL] | MIC [4, 15] [µg/mL] | MIC [4, 17] [µg/mL] | MIC [6, 15] [µg/mL] | MIC [6, 16] [µg/mL] | MIC [8, 19] [µg/mL] | MIC [9, 21] [µg/mL] | MIC [9, 22] [µg/mL] | MIC [10, 19] [µg/mL] | MIC [11, 15] [µg/mL] | MIC [11, 16] [µg/mL] | activity against Gram-negative microorganisms [12] | MIC [13, 15] [µg/mL] | MIC [13, 16] [µg/mL] | MIC [14, 19] [µg/mL] | further results
CN1CCN(c2ncc3c(=O)c(C(=O)O)cn(C)c3n2)CC1 [Example X, 2-(4'-Methyl-piperazino)-5-oxo-8-methyl-5,8-dihydropyrido-(2,3-d)pyrimidine-6-carboxylic acid] | 50 (≈ 165 µM) | > 100 | 12.5 (≈ 41.2 µM) | 3.1 (≈ 10.2 µM) | 25 (≈ 82.4 µM) | 100 (≈ 330 µM) | 50 (≈ 165 µM) | > 100 | 6.2 (≈ 20.4 µM) | 6.2 (≈ 20.4 µM) | 50 (≈ 165 µM) | 3.1 (≈ 10.2 µM) | 12.5 (≈ 41.2 µM) | 3.1 (≈ 10.2 µM) | 3.1 (≈ 10.2 µM) | 6.2 (≈ 20.4 µM) | particularly active against Gram-negative microorganisms | 100 (≈ 330 µM) | > 100 | 1.6 (≈ 5.27 µM) | MIC [5, 18]: 12.5 µg/mL (≈ 41.2 µM); MIC [5, 19]: 3.1 µg/mL (≈ 10.2 µM); MIC [7, 19]: 50 µg/mL (≈ 165 µM); MIC [7, 20]: 100 µg/mL (≈ 330 µM); MIC [8, 20]: 100 µg/mL (≈ 330 µM); MIC [10, 20]: 25 µg/mL (≈ 82.4 µM); MIC [14, 20]: 6.2 µg/mL (≈ 20.4 µM)
CCn1cc(C(=O)O)c(=O)c2cnc(N3CCC(O)CC3)nc21 [IV, 2-(4'-Hydroxy-piperidino)-5-oxo-8-ethyl-5,8-dihydropyrido(2,3-d)pyrimidine-6-carboxylic acid] | 100 (≈ 314 µM) | > 100 | 3.1 (≈ 9.74 µM) | 12.5 (≈ 39.3 µM) | 100 (≈ 314 µM) | > 100 | 100 (≈ 314 µM) | > 100 | 0.4 (≈ 1.26 µM) | 0.8 (≈ 2.51 µM) | 1.6 (≈ 5.03 µM) | 6.2 (≈ 19.5 µM) | 12.5 (≈ 39.3 µM) | 3.1 (≈ 9.74 µM) | 0.4 (≈ 1.26 µM) | 0.8 (≈ 2.51 µM) | particularly active against Gram-negative microorganisms | 0.8 (≈ 2.51 µM) | 3.1 (≈ 9.74 µM) | 6.2 (≈ 19.5 µM) | MIC [5, 23]: 12.5 µg/mL (≈ 39.3 µM); MIC [5, 20]: 25 µg/mL (≈ 78.5 µM); MIC [7, 23]: 12.5 µg/mL (≈ 39.3 µM); MIC [7, 18]: 12.5 µg/mL (≈ 39.3 µM); MIC [8, 20]: 50 µg/mL (≈ 157 µM); MIC [10, 18]: 12.5 µg/mL (≈ 39.3 µM); MIC [14, 18]: 12.5 µg/mL (≈ 39.3 µM)
CCn1cc(C(=O)O)c(=O)c2cnc(N3CCN(C)CC3)nc21 [Example V, 2-(4'-Methyl-piperazino)-5-oxo-8-ethyl-5,8-dihydro-pyrido(2,3-d)pyrimidine-6-carboxylic acid] | 12.5 (≈ 39.4 µM) | 100 (≈ 315 µM) | 0.8 (≈ 2.52 µM) | 1.6 (≈ 5.04 µM) | 50 (≈ 158 µM) | 100 (≈ 315 µM) | 50 (≈ 158 µM) | 100 (≈ 315 µM) | 0.4 (≈ 1.26 µM) | 6.2 (≈ 19.5 µM) | 3.1 (≈ 9.77 µM) | 3.1 (≈ 9.77 µM) | 3.1 (≈ 9.77 µM) | 1.6 (≈ 5.04 µM) | 0.8 (≈ 2.52 µM) | 1.6 (≈ 5.04 µM) | particularly active against Gram-negative microorganisms | 1.6 (≈ 5.04 µM) | 6.2 (≈ 19.5 µM) | 0.8 (≈ 2.52 µM) | MIC [5, 19]: 6.2 µg/mL (≈ 19.5 µM); MIC [5, 20]: 6.2 µg/mL (≈ 19.5 µM); MIC [7, 19]: 25 µg/mL (≈ 78.8 µM); MIC [7, 20]: 6.2 µg/mL (≈ 19.5 µM); MIC [8, 20]: 100 µg/mL (≈ 315 µM); MIC [10, 20]: 6.2 µg/mL (≈ 19.5 µM); MIC [14, 20]: 6.2 µg/mL (≈ 19.5 µM)
CCn1cc(C(=O)O)c(=O)c2cnc(N3CCN(CCO)CC3)nc21 [Example VI, 2-(4-β-Hydroxyethyl-piperazino)-5-oxo-8-ethyl-5,8-dihydropyrido(2,3-d)pyrimidine-6-carboxylic acid] | 50 (≈ 144 µM) | > 100 | 1.6 (≈ 4.61 µM) | 1.6 (≈ 4.61 µM) | 50 (≈ 144 µM) | > 100 | 50 (≈ 144 µM) | > 100 | 0.4 (≈ 1.15 µM) | 1.6 (≈ 4.61 µM) | 3.1 (≈ 8.92 µM) | 12.5 (≈ 36 µM) | 6.2 (≈ 17.8 µM) | 50 (≈ 144 µM) | 1.6 (≈ 4.61 µM) | 1.6 (≈ 4.61 µM) | particularly active against Gram-negative microorganisms | 1.6 (≈ 4.61 µM) | 3.1 (≈ 8.92 µM) | 1.6 (≈ 4.61 µM) | MIC [5, 18]: 12.5 µg/mL (≈ 36 µM); MIC [5, 19]: 3.1 µg/mL (≈ 8.92 µM); MIC [7, 18]: 12.5 µg/mL (≈ 36 µM); MIC [7, 19]: 3.1 µg/mL (≈ 8.92 µM); MIC [8, 18]: 12.5 µg/mL (≈ 36 µM); MIC [10, 20]: 6.2 µg/mL (≈ 17.8 µM); MIC [14, 20]: 3.1 µg/mL (≈ 8.92 µM)
